Key:
[1] = molecular target: T1, Aurora kinase B/Inner centromere protein (Homo sapiens, UniProt Q96GD4)
Description: Inhibition of AURKB/INCENP (unknown origin) in the presence of ATP at Km concentration

[2] = molecular target: T2, Aurora kinase B (Homo sapiens, UniProt Q96GD4); test: Inhibition of AURKB (unknown origin) by nanoBRET assay
[3] = molecular target: T1, Aurora kinase B/Inner centromere protein; remark: listed apart in the source
Description: Inhibition of AURKB/INCENP (unknown origin) preincubated for 60 mins in the presence of ATP at Km concentration

[4] = molecular target: T3, Epidermal growth factor receptor (Homo sapiens, UniProt P00533, L858R)
Description: Inhibition of EGFR L858R mutant phosphorylation (unknown origin) preincubated for 60 mins in the presence of ATP

[5] = test system: A549; test: Anticancer activity against human A549 cells harboring KRAS mutant assessed as inhibition of cell growth
[6] = molecular target: T3, Epidermal growth factor receptor; remark: listed apart in the source
Description: Binding affinity to human partial length EGFR (R669 to V1011 residues) L858R mutant expressed in bacterial expression system assessed as dissociation constant by DiscoverX kinomescan assay

[7] = molecular target: T3, Epidermal growth factor receptor; remark: listed apart in the source
Description: Inhibition of EGFR L858R mutant phosphorylation (unknown origin) in the presence of ATP

[8] = molecular target: T2, Aurora kinase B
Description: Binding affinity to human partial length AURKB (D25 to A303 residues) expressed in mammalian system assessed as dissociation constant by DiscoverX kinomescan assay

[9] = test system: NCI-H1975; test: cells; conditions: Homo sapiens
Description: Anticancer activity against TKI resistant human NCI-H1975 cells harboring EGFR L858R/T790M mutant assessed as inhibition of cell growth

[10] = molecular target: Epidermal growth factor receptor (Homo sapiens, UniProt P00533)
Chain of Epidermal growth factor receptor (Homo sapiens, UniProt P00533) (P00533 whole entry): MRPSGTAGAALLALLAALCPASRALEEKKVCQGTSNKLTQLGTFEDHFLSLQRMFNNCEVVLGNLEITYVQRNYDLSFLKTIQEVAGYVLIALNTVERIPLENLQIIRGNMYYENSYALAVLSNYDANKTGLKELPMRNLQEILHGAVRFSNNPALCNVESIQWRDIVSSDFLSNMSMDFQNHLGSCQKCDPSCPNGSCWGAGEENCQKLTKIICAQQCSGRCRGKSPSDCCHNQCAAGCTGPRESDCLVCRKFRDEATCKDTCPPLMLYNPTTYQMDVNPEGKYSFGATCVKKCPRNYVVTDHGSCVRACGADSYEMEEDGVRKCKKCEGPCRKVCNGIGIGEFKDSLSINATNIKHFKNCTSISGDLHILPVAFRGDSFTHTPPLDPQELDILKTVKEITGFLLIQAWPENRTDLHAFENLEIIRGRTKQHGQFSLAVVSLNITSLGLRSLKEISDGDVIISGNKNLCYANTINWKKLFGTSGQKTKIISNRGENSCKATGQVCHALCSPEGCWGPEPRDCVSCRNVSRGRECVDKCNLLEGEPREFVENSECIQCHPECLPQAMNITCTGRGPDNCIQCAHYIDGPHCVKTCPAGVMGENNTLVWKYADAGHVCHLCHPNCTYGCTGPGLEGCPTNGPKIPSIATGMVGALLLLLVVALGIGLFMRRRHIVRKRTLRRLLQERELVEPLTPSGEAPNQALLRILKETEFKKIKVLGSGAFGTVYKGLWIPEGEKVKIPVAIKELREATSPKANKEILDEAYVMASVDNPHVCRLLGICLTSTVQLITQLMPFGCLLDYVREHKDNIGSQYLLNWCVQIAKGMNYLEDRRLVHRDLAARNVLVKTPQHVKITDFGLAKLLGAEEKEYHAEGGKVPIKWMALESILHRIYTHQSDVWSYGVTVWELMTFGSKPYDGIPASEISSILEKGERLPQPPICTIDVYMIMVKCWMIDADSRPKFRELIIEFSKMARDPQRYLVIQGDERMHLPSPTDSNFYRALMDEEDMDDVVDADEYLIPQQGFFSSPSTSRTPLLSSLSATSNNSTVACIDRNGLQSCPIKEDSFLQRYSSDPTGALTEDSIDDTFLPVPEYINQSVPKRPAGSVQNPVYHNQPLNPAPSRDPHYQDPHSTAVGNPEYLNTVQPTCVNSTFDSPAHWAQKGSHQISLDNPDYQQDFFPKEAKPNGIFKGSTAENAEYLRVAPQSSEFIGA
Description: Binding affinity to wild type human EGFR partial length (R669 to V1011 residues) expressed in bacterial expression system assessed as dissociation constant by DiscoverX kinomescan assay

T3 sequence (P00533 25-1210 L858R limits assumed): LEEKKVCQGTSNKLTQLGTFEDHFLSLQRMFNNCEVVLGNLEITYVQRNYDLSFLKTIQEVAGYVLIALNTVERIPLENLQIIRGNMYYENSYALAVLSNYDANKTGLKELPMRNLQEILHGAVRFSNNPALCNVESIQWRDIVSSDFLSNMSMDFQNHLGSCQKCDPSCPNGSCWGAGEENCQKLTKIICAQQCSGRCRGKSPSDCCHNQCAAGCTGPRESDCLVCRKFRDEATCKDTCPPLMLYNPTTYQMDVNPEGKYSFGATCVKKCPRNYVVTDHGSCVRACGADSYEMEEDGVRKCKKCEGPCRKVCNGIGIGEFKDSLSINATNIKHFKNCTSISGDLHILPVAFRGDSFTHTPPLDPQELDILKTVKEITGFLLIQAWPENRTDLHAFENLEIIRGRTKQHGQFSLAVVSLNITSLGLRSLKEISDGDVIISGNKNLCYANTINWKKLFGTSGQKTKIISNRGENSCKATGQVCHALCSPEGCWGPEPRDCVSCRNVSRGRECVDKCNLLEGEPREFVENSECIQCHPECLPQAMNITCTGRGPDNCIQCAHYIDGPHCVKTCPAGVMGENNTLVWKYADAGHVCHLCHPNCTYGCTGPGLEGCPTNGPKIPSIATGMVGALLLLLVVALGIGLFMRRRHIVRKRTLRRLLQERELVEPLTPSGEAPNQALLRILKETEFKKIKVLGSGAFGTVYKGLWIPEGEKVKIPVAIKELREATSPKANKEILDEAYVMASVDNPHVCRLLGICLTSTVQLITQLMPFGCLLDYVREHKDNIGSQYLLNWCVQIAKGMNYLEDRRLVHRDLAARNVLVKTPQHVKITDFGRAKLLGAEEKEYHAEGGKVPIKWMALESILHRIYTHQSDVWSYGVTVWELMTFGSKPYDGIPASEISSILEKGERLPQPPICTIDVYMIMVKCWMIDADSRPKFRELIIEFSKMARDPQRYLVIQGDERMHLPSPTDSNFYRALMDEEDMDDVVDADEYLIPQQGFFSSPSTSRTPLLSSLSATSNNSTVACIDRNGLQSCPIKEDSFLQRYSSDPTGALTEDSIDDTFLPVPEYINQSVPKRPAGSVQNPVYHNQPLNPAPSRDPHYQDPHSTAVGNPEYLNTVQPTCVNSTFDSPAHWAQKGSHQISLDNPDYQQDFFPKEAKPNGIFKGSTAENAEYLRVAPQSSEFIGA
T1 sequence (Q96GD4 whole entry): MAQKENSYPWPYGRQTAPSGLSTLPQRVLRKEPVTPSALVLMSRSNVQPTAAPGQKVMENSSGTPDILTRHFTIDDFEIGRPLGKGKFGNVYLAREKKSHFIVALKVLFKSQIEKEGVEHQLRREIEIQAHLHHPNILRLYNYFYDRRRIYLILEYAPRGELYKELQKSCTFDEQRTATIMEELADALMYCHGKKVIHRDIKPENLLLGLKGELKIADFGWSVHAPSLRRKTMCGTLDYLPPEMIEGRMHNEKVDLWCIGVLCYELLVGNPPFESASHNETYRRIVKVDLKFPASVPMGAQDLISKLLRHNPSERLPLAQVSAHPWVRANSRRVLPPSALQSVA
T1 sequence (Q9NQS7 whole entry, further chain): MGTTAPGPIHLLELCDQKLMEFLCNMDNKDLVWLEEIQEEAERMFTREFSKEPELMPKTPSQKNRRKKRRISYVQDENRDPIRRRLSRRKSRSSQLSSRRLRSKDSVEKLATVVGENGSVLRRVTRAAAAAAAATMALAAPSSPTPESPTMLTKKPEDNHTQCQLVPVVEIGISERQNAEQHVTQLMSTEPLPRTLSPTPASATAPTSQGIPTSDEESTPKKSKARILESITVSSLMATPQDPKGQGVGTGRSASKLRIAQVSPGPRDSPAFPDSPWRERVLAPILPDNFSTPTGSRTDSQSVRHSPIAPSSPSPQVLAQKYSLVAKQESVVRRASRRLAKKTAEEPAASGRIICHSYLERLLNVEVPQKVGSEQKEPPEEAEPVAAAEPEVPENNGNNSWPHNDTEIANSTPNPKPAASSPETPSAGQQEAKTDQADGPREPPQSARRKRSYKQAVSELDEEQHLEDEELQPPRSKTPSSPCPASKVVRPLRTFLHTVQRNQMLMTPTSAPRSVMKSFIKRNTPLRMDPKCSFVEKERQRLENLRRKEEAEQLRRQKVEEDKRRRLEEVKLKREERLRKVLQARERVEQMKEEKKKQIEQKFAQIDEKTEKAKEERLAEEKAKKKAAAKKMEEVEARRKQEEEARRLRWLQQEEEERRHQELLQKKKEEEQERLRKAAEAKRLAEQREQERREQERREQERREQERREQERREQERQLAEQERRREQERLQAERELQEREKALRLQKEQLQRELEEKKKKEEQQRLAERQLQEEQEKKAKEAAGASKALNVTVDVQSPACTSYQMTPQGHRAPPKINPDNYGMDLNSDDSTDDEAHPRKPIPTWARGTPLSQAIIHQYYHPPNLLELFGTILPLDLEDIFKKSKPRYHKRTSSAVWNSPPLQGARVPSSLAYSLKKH
T2 sequence (Q96GD4 whole entry): as the sequence (Q96GD4 whole entry) above

Structure (SMILES): O=C(Nc1ccccc1)c1ccc(Nc2ncnc3[nH]ccc23)cc1
- IC50 [1]: 800 nM
- IC50 [2]: 14700 nM
- IC50 [3]: 50 nM

Structure (SMILES): Cn1nccc1-c1cc2c(Nc3ccc(OCc4ccccc4)cc3)ncnc2[nH]1
- IC50 [4]: 69 nM
- IC50 [5]: 2920 nM
- IC50 [1]: 4000 nM
- Kd [6]: 210 nM
- IC50 [7]: 70 nM
- Kd [8]: > 30000 nM
- IC50 [9]: > 50000 nM
- IC50 [3]: 1100 nM

Structure (SMILES): COc1cccc2c1C(=O)c1c(O)c3c(c(O)c1C2=O)C[C@@](O)(C(=O)CO)C[C@@H]3O[C@H]1C[C@H](N)[C@H](O)[C@H](C)O1 [DOXORUBICIN]
- IC50 [5]: 59 nM

Structure (SMILES): COc1cc2c(Nc3ccc(NC(=O)c4ccccc4)cc3)ncnc2cc1OCCCN1CCOCC1
- Kd [6]: 880 nM
- Kd [10]: 220 nM

Structure (SMILES): Brc1cccc(Nc2ncnc3[nH]ccc23)c1
- IC50 [4]: 3 nM
- IC50 [5]: 20400 nM
- IC50 [1]: 2770 nM
- IC50 [7]: 3 nM
- IC50 [3]: 3800 nM
